Measurements: the NIST ThermoML archive (doi:10.1016/j.fluid.2007.09.028)

Assay: xn = mol fraction of the nth substance listed
Details: 101 kPa, Liquid

Clc1ccccc1 [chlorobenzene] + CCCO
mass density [kg/m3]
Details	288.15 K	293.15 K	298.15 K	303.15 K	308.15 K	313.15 K
x2 = 0	1111.81	1106.43	1101.04	1095.64	1090.23	1084.82
x2 = 0.0254	1105.92	1100.51	1095.1	1089.69	1084.26	1078.83
x2 = 0.0513	1100.01	1094.6	1089.18	1083.75	1078.3	1072.86
x2 = 0.0726	1095.18	1089.77	1084.35	1078.91	1073.46	1068.03
x2 = 0.0738	1094.9	1089.49	1084.07	1078.63	1073.18	1067.73
x2 = 0.1016	1088.48	1083.08	1077.66	1072.22	1066.77	1061.3
x2 = 0.1058	1087.51	1082.11	1076.69	1071.26	1065.81	1060.35
x2 = 0.1365	1080.3	1074.91	1069.5	1064.08	1058.63	1053.17
x2 = 0.2019	1064.7	1059.35	1053.96	1048.56	1043.17	1037.75
x2 = 0.2472	1053.55	1048.23	1042.89	1037.53	1032.14	1026.73
x2 = 0.2984	1040.5	1035.23	1029.94	1024.62	1019.26	1013.88
x2 = 0.3443	1028.6	1023.38	1018.13	1012.85	1007.53	1002.2
x2 = 0.4027	1012.95	1007.78	1002.6	997.378	992.12	986.836
x2 = 0.4952	986.837	981.797	976.724	971.618	966.472	961.296
x2 = 0.5492	970.777	965.817	960.824	955.797	950.728	945.63
x2 = 0.5975	955.977	951.086	946.167	941.211	936.213	931.183
x2 = 0.6447	940.98	936.176	931.338	926.463	921.545	916.599
x2 = 0.699	923.003	918.296	913.559	908.798	903.973	899.127
x2 = 0.7494	905.686	901.079	896.443	891.773	887.057	882.312
x2 = 0.8008	887.239	882.746	878.223	873.664	869.063	864.438
x2 = 0.8473	869.896	865.508	861.093	856.643	852.152	847.622
x2 = 0.8955	851.18	846.915	842.621	838.296	833.934	829.53
x2 = 0.9192	841.722	837.516	833.28	829.014	824.709	820.375
x2 = 0.9497	829.134	825.009	820.857	816.677	812.457	808.213
